Test system: lung gene expression
Assay: RNA sequencing of lung tissue (BLM/EL244 vs BLM)
Type: in vivo, mouse
Details: BLM/EL244 vs BLM
Procedure: RNA quality was assessed using an Agilent TapeStation 4150 with the High Sensitivity […] ScreenTape (Agilent), according to the manufacturer’s protocols. For library preparation, the QuantSeq 3’mRNA-Seq Library Prep Kit (Lexogen) was used according to manufacturer’s instructions. Briefly, 500 ng of RNA from each sample was used for first-strand synthesis, followed by RNA template removal, and second-strand synthesis initiated by random primers. In-line barcodes were introduced at this step, and this was followed by magnetic bead-based purification. The resulting libraries were amplified for 15 cycles and re-purified, with quantity and quality assessed on a Qubit 4 Fluorometer with the Invitrogen Qubit dsDNA HS Assay and an Agilent Tapestation 4150 with the High Sensitivity D1000 assay kit, respectively. The quantified libraries were pooled equimolarly; 50ng of total library mix was used for Adapter Conversion PCR Amplification using the Universal Library Conversion Kit (App-A), Version: V1.0 (MGI Tech Co., Ltd.), according to the manufacturer’s instructions.
The quantity and quality of the purified adapter conversion PCR (AC-PCR) product were evaluated on a Qubit 4 Fluorometer with the Invitrogen Qubit dsDNA HS Assay and on an Agilent Tapestation 4150 with the High Sensitivity D1000 assay kit, respectively. This was followed by DNA denaturation, Single-Strand Circularisation, Enzymatic Digestion, Enzymatic Digestion Product Cleanup and Quality Control steps on 1 pmol of AC-PCR product, according to the Universal Library Conversion Kit (App-A) User Manual (Version: A3).
Finally, 60 fmol of ssCirDNA were used for DNB preparation and sequencing on a DNBSEQ-G400 platform at the BSRC Alexander Fleming Genomics Facility, using a G400 App-A FCS SE100 High-throughput Sequencing Set (MGI Tech Co., Ltd.), according to the manufacturer’s instructions.
Alignment of the FASTQ files was performed against the mouse genome build mm10 using a custom Bash script.[143] Read counting on the 3′ UTRs and differential expression analysis were conducted using the metaseqR2 bioconductor package.[144] Genes corresponding to the following biotypes were excluded: polymorphic_pseudogene, processed_transcript, pseudogene, IG_V_pseudogene, misc_RNA, IG_C_gene, IG_J_gene, IG_D_gene, IG_LV_gene, TR_V_gene, TR_V_pseudogene, TEC, and processed_pseudogene. Gene counts were normalized with DESEQ[145] through metaseqR2. Genes with more than 10 counts in at least 50% of the samples were kept for further processing. For differential expression analysis, the PANDORA algorithm[146] was used to estimate a meta p-value integrating the results from the DESEQ, DESEQ2,[147] edgeR,[148] limma,[149] NBPSeq,[150] and NOISeq[151] algorithms. All additional parameters were set to default values.
Pathway enrichment analysis was performed for the Gene Ontology Biological process (BP) and Molecular Function (MF) terms through GeneCodis 4.[152] The volcano plots, scatterplots, Venn diagrams, and dot plots were generated using the ggplot2 Bioconductor package.

[1] = lung tissue of BLM-treated mice

**Q.** What does the source list for O=C1NC(=O)C(Cc2ccc(OCCC3CCN(C(=O)OCc4cc(Cl)cc(Cl)c4)CC3)cc2)S1 (stereo not drawn) [EL244, 3,5-dichlorobenzyl 4-(2-(4-((2,4-dioxothiazolidin-5-yl)methyl)phenoxy)ethyl)piperidine-1-carboxylate]?
**A.** Synm log2 nFC [1]: 0.84; Synm nFC [1]: 1.79; Tbc1d8 log2 nFC [1]: 1.01; Tbc1d8 nFC [1]: 2.01; Tbkbp1 log2 nFC [1]: 0.71; Tbkbp1 nFC [1]: 1.64; Tgfbr3 log2 nFC [1]: 0.83; Tgfbr3 nFC [1]: 1.78; Tmcc3 log2 nFC [1]: 0.74; Tmcc3 nFC [1]: 1.67; Tmem100 log2 nFC [1]: 0.82; Tmem100 nFC [1]: 1.77; Tns2 log2 nFC [1]: 0.77; Tns2 nFC [1]: 1.70; Tppp3 log2 nFC [1]: 0.77; Tppp3 nFC [1]: 1.70; Unc45b log2 nFC [1]: 0.77; Unc45b nFC [1]: 1.70; Vpreb3 log2 nFC [1]: 0.71; Vpreb3 nFC [1]: 1.63; Vwa3b log2 nFC [1]: 0.98; Vwa3b nFC [1]: 1.97; Zfp36 log2 nFC [1]: 0.94; Zfp36 nFC [1]: 1.92; Acss1 log2 nFC (lung tissue): 0.65; Acss1 nFC (lung tissue): 1.56; Actn1 log2 nFC (lung tissue): -0.60; Actn1 nFC (lung tissue): 0.66; Adam12 log2 nFC (lung tissue): -1.57; Adam12 nFC (lung tissue): 0.34; Adamts4 log2 nFC (lung tissue): -2.15; Adamts4 nFC (lung tissue): 0.23; Adamts12 log2 nFC (lung tissue): -1.47; Adamts12 nFC (lung tissue): 0.36; Adgre1 log2 nFC (lung tissue): -0.79; Adgre1 nFC (lung tissue): 0.58; Ahnak log2 nFC (lung tissue): 0.61; Ahnak nFC (lung tissue): 1.52; Akap12 log2 nFC (lung tissue): 0.65; Akap12 nFC (lung tissue): 1.57; Ankrd37 log2 nFC (lung tissue): -1.50; Ankrd37 nFC (lung tissue): 0.35; Anln log2 nFC (lung tissue): -2.01; Anln nFC (lung tissue): 0.25; Apoe log2 nFC (lung tissue): -0.84; Apoe nFC (lung tissue): 0.56; Arg1 log2 nFC (lung tissue): -2.32; Arg1 nFC (lung tissue): 0.20; Arhgef39 log2 nFC (lung tissue): -1.70; Arhgef39 nFC (lung tissue): 0.31; Aurka log2 nFC (lung tissue): -2.19; Aurka nFC (lung tissue): 0.22; Aurkb log2 nFC (lung tissue): -1.85; Aurkb nFC (lung tissue): 0.28; Bex3 log2 nFC (lung tissue): -0.75; Bex3 nFC (lung tissue): 0.59; Bhlhe40 log2 nFC (lung tissue): -0.85; Bhlhe40 nFC (lung tissue): 0.56; Birc5 log2 nFC (lung tissue): -2.03; Birc5 nFC (lung tissue): 0.25; Bmpr2 log2 nFC (lung tissue): 0.60; Bmpr2 nFC (lung tissue): 1.52; Brca2 log2 nFC (lung tissue): -1.64; Brca2 nFC (lung tissue): 0.32; Brinp1 log2 nFC (lung tissue): -1.85; Brinp1 nFC (lung tissue): 0.28; C1qa log2 nFC (lung tissue): -1.44; C1qa nFC (lung tissue): 0.37; C1qb log2 nFC (lung tissue): -1.51; C1qb nFC (lung tissue): 0.35; C1qc log2 nFC (lung tissue): -1.56; C1qc nFC (lung tissue): 0.34; C3ar1 log2 nFC (lung tissue): -1.58; C3ar1 nFC (lung tissue): 0.33; Capg log2 nFC (lung tissue): -0.82; Capg nFC (lung tissue): 0.57; Casp3 log2 nFC (lung tissue): -0.85; Casp3 nFC (lung tissue): 0.56; Ccdc80 log2 nFC (lung tissue): -1.64; Ccdc80 nFC (lung tissue): 0.32; Ccl2 log2 nFC (lung tissue): -1.43; Ccl2 nFC (lung tissue): 0.37; Ccl7 log2 nFC (lung tissue): -1.75; Ccl7 nFC (lung tissue): 0.30; Ccl8 log2 nFC (lung tissue): -1.54; Ccl8 nFC (lung tissue): 0.34; Ccl12 log2 nFC (lung tissue): -2.27; Ccl12 nFC (lung tissue): 0.21; Ccn4 log2 nFC (lung tissue): -2.20; Ccn4 nFC (lung tissue): 0.22; Ccna2 log2 nFC (lung tissue): -2.26; Ccna2 nFC (lung tissue): 0.21; Ccnb1 log2 nFC (lung tissue): -2.41; Ccnb1 nFC (lung tissue): 0.19; Ccnb2 log2 nFC (lung tissue): -1.68; Ccnb2 nFC (lung tissue): 0.31; Ccne1 log2 nFC (lung tissue): -2.04; Ccne1 nFC (lung tissue): 0.24; Ccnf log2 nFC (lung tissue): -2.02; Ccnf nFC (lung tissue): 0.25; Ccr5 log2 nFC (lung tissue): -1.76; Ccr5 nFC (lung tissue): 0.30; Cd63 log2 nFC (lung tissue): -0.76; Cd63 nFC (lung tissue): 0.59; Cd276 log2 nFC (lung tissue): -1.70; Cd276 nFC (lung tissue): 0.31; Cdc20 log2 nFC (lung tissue): -1.58; Cdc20 nFC (lung tissue): 0.34; Cdca3 log2 nFC (lung tissue): -1.83; Cdca3 nFC (lung tissue): 0.28; Cdca8 log2 nFC (lung tissue): -2.32; Cdca8 nFC (lung tissue): 0.20; Cdk1 log2 nFC (lung tissue): -1.99; Cdk1 nFC (lung tissue): 0.25

Source: article PMC13198257, “An aerosolized dual-action autotaxin inhibitor-PPARγ agonist for the treatment of pulmonary fibrosis” (Cell Reports Medicine, 2026)
